Data on four compounds can be found in ChEMBL document CHEMBL3098114, “Combining the tail and the ring approaches for obtaining potent and isoform-selective carbonic anhydrase inhibitors: solution and X-ray crystallographic studies” (Bioorg Med Chem, 2014).

Targets include Carbonic anhydrase 12 (Homo sapiens, UniProt O43570); Carbonic anhydrase 9 (Homo sapiens, UniProt Q16790); Carbonic anhydrase 3 (Homo sapiens, UniProt P07451); Carbonic anhydrase 1 (Homo sapiens, UniProt P00915); Carbonic anhydrase 13 (Homo sapiens, UniProt Q8N1Q1).
The next assay concerns the target Carbonic anhydrase 7 (Homo sapiens, UniProt P43166). In words: Inhibition of human CA7 preincubated for 15 mins by stopped-flow CO2 hydration method.
The target of another assay is Carbonic anhydrase 2 (Homo sapiens, UniProt P00918). In words: Inhibition of human CA2 cytosolic isoform preincubated for 15 mins by stopped-flow CO2 hydration method.

The structures appear in SMILES notation. pKi: −log10 of the molar value.

Sequence of Carbonic anhydrase 7 (P43166 whole entry, canonical isoform): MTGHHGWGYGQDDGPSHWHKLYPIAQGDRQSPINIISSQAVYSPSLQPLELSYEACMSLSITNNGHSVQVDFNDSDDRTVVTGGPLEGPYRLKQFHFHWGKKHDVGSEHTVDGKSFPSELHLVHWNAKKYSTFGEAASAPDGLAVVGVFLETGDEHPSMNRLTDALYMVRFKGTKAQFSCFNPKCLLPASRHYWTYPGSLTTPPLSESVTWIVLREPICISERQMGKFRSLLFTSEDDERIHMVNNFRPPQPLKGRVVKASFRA
Sequence of Carbonic anhydrase 3 (P07451 whole entry): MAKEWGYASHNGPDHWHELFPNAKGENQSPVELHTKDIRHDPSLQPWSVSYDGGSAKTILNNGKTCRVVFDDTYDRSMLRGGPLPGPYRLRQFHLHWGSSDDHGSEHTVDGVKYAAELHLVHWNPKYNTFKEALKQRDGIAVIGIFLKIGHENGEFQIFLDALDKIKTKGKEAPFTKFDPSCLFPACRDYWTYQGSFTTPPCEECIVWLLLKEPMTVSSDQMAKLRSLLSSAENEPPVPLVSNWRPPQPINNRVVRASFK
Sequence of Carbonic anhydrase 12 (O43570 whole entry): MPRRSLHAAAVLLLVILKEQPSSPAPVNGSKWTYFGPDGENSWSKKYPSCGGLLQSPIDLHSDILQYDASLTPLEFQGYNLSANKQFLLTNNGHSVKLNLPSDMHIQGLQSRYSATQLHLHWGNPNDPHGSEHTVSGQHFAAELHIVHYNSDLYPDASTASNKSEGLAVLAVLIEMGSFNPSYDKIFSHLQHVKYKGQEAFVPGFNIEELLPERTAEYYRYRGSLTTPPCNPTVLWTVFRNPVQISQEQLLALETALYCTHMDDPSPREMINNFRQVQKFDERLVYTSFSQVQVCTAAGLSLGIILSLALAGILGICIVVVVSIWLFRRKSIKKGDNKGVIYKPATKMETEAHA
Sequence of Carbonic anhydrase 13 (Q8N1Q1 whole entry): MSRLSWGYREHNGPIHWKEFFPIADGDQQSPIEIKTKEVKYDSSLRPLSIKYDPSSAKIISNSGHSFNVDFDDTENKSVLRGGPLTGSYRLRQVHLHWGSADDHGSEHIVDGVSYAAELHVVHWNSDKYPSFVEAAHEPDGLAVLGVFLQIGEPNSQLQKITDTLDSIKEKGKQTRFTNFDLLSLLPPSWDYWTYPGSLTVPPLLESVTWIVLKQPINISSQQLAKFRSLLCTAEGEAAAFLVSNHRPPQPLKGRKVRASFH
Sequence of Carbonic anhydrase 1 (P00915 whole entry): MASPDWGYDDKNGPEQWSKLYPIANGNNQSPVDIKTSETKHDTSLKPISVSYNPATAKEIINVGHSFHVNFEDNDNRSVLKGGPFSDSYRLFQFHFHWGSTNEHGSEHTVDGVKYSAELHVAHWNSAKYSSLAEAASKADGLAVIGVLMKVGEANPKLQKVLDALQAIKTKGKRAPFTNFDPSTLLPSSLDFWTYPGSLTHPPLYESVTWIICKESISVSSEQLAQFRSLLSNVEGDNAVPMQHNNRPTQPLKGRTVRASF

What is called pKi is the negative decadic logarithm of the Ki, by convention in mol/L. A low value points to a high Ki. For the compound `Nc1ccc(S(N)(=O)=O)nc1`, the negative logarithm of the Ki (pKi) at Carbonic anhydrase 7 is 6.87; on Carbonic anhydrase 2 it was 6.60; at Carbonic anhydrase 12, 6.94; on Carbonic anhydrase 9 it was 6.55; at Carbonic anhydrase 3, below 4.00; at Carbonic anhydrase 1, 4.61.

Take `Cc1ccc(S(=O)(=O)NC(=O)Nc2ccc(S(N)(=O)=O)nc2)cc1`: the pKi on Carbonic anhydrase 7 is 7.52; on Carbonic anhydrase 3 it was below 4.00.

For `Cc1ccc(S(=O)(=O)NC(=O)Nc2ccc(S(N)(=O)=O)cc2)cc1`, the pKi was 8.19 on Carbonic anhydrase 7 and below 4.00 on Carbonic anhydrase 3.

For the compound `Nc1ccc(S(N)(=O)=O)cc1` [SULFANILAMIDE], the values for the pKi on Carbonic anhydrase 13 and at Carbonic anhydrase 3 were 7.46 and below 4.00, respectively.
